Test [1] concerns the target T1, Muscarinic acetylcholine receptor M1 (Homo sapiens, UniProt P11229).
T1 sequence (P11229 whole entry): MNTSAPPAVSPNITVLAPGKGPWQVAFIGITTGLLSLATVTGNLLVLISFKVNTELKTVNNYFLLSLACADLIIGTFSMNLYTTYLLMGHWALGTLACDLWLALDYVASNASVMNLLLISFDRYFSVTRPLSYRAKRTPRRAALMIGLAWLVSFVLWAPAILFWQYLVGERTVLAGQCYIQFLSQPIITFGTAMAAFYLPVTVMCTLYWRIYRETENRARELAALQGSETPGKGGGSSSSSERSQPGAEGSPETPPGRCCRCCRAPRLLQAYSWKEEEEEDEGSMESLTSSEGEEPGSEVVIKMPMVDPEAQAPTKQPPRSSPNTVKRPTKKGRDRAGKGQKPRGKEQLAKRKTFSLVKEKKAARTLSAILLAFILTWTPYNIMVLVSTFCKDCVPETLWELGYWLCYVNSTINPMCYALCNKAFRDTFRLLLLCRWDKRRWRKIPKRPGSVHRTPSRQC

Another test deals with T2, D(4) dopamine receptor (Homo sapiens, UniProt P21917).
T2 sequence (P21917 whole entry): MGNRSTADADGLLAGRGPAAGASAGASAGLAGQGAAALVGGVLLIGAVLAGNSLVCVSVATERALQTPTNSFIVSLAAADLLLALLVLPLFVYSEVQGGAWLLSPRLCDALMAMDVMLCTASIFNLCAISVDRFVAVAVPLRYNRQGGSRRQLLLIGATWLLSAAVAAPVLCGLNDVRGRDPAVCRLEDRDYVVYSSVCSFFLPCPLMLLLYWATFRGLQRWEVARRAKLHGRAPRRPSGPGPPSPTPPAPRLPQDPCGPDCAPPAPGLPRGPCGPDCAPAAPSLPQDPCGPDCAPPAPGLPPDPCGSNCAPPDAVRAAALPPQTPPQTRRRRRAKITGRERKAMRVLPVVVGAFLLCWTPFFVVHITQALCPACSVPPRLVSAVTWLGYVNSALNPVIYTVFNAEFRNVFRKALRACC

Test [2] has as its target 5-hydroxytryptamine receptor 2B (Homo sapiens, UniProt P41595).
In test [3] the target is Neurotensin receptor type 1 (Homo sapiens, UniProt P30989).
Neurotensin receptor type 1, sequence (P30989 whole entry): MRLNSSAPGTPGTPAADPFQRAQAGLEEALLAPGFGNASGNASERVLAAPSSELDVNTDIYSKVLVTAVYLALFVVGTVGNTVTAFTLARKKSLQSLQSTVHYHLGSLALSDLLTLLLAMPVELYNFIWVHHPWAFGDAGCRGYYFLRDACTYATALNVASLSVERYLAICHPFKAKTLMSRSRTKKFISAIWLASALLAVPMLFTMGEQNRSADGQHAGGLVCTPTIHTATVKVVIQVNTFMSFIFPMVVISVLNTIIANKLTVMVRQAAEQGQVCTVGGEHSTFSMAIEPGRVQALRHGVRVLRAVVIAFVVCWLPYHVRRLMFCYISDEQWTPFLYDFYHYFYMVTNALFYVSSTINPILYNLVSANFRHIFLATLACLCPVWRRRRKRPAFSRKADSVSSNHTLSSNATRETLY
Test [4] addresses T3, 5-hydroxytryptamine receptor 1A (Homo sapiens, UniProt P08908).
T3 sequence (P08908 whole entry): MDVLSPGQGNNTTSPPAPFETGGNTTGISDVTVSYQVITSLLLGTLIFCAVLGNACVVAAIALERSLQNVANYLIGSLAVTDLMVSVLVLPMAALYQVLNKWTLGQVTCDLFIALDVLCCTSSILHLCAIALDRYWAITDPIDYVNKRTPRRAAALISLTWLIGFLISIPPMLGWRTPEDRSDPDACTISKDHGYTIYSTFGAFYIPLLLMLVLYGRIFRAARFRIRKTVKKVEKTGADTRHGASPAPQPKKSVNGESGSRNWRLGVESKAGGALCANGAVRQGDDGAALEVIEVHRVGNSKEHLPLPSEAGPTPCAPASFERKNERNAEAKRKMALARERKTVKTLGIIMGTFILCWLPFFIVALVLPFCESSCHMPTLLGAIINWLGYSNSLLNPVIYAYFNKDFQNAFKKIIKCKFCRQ

Another test has as its target Acetylcholinesterase (Homo sapiens, UniProt P22303). Format: functional.
The target of another test is T4, Androgen receptor (Rattus norvegicus, UniProt P15207).
T4 sequence (P15207 whole entry): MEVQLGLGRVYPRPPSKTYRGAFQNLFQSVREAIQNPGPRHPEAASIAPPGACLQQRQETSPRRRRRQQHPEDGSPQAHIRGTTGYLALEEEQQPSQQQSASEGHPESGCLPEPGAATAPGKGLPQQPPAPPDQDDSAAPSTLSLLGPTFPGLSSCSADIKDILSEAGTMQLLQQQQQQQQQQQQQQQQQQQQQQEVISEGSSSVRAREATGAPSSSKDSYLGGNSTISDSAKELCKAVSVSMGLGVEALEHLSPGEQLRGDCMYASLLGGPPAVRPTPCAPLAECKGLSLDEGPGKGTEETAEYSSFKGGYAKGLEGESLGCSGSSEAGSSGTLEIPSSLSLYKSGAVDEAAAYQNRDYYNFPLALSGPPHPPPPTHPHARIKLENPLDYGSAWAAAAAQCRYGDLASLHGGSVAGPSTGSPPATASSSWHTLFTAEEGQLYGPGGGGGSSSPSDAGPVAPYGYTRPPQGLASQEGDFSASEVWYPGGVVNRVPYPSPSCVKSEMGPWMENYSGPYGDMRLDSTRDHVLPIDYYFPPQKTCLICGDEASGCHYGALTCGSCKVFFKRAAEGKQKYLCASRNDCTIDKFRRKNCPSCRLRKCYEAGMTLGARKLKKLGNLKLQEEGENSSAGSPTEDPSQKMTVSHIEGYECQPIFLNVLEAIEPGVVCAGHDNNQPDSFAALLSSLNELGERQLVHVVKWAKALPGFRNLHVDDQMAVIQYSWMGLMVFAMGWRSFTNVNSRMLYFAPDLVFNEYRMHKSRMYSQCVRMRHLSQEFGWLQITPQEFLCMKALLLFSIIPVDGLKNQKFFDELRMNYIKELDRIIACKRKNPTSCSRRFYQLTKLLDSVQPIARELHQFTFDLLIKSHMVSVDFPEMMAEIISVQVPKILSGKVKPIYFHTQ

In another test the target is T5, Thromboxane A2 receptor (Homo sapiens, UniProt P21731).
T5 sequence (P21731 whole entry): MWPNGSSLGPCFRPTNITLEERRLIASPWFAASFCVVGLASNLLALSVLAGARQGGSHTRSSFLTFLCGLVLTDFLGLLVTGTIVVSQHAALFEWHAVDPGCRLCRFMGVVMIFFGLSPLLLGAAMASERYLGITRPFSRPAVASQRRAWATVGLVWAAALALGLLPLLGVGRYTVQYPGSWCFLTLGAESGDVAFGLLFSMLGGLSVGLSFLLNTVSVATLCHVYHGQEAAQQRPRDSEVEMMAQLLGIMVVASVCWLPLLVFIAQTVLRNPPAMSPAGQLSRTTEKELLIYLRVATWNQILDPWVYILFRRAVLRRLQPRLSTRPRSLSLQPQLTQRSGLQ
Format: functional.

This is an account of results in ChEMBL document CHEMBL5291721, “A preclinical secondary pharmacology resource illuminates target-adverse drug reaction associations of marketed drugs” (Nat Commun, 2023).
Note: assay procedure not described here.

5-hydroxytryptamine receptor 2B, sequence (P41595 whole entry): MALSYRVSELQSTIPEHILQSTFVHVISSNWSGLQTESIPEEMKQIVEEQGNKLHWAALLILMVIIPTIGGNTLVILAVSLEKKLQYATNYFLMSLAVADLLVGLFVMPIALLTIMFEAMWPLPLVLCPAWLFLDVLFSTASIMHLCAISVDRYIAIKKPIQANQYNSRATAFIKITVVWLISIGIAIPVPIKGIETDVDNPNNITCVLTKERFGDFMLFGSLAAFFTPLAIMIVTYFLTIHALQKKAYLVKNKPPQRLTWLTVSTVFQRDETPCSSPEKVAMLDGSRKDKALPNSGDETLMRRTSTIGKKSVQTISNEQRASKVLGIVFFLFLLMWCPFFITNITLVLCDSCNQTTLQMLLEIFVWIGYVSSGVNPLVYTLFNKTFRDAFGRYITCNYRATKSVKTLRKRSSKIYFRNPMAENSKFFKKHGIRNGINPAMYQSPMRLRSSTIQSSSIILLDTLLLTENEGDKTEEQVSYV
Acetylcholinesterase, sequence (P22303 whole entry): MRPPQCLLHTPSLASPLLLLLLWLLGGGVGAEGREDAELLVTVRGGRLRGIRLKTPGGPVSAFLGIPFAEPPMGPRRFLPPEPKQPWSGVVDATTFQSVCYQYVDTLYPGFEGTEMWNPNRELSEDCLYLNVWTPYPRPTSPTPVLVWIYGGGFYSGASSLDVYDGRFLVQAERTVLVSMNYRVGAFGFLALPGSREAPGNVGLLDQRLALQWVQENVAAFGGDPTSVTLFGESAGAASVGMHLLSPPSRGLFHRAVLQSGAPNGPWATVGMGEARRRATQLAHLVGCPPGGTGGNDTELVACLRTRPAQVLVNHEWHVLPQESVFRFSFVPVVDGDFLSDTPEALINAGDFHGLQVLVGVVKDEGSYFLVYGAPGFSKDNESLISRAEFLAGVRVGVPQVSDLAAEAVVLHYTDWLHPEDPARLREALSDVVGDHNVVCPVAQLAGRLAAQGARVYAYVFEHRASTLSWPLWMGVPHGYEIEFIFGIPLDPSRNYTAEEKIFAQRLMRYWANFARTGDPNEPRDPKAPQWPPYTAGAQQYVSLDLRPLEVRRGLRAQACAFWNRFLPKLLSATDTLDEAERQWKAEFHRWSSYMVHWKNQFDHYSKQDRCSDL

`O=C(O)[C@@H](S)[C@@H](S)C(=O)O` showed an AC50 in test [1] greater than 30 µM.

Consider `CCOC(=O)[C@H](CCc1ccccc1)N[C@@H](C)C(=O)N1Cc2ccccc2C[C@H]1C(=O)O`, for which the AC50 was greater than 10 µM at D(4) dopamine receptor, greater than 10 µM in test [2], greater than 30 µM in test [3] and greater than 10 µM in test [4].

On Acetylcholinesterase, `CCC[C@@]1(CCc2ccccc2)CC(O)=C([C@H](CC)c2cccc(NS(=O)(=O)c3ccc(C(F)(F)F)cn3)c2)C(=O)O1` had an AC50 greater than 30 µM.

Turning to `C=CC1=C(C(=O)O)N2C(=O)[C@@H](NC(=O)/C(=N\O)c3csc(N)n3)[C@H]2SC1`, the AC50 on Androgen receptor is greater than 30 µM.

For the compound `CC#CC(=O)N1CCC[C@H]1c1nc(-c2ccc(C(=O)Nc3ccccn3)cc2)c2c(N)nccn12` [ACALABRUTINIB], in test [1], the AC50 is greater than 30 µM.

On to `O=C(O)COC(=O)Cc1ccccc1Nc1c(Cl)cccc1Cl` [ACECLOFENAC], for which the figures for the AC50 (on Androgen receptor; in test [4]) were greater than 30 µM and greater than 10 µM, respectively.

`CN(C)CCc1c[nH]c2ccc(CS(=O)(=O)N3CCCC3)cc12` [ALMOTRIPTAN] registered an AC50 in test [2] of 0.51 µM.

For `CN(C)CCC=C1c2ccccc2CCc2ccccc21` [AMITRIPTYLINE], the half-maximal activity concentration (AC50) was greater than 30 µM at Thromboxane A2 receptor, 0.819 µM on D(4) dopamine receptor, greater than 30 µM in test [3] and 3.77 µM in test [4].

As for `CN1CC2c3ccccc3Oc3ccc(Cl)cc3C2C1` (configuration not stated) [ASENAPINE], at Acetylcholinesterase, the AC50 is greater than 30 µM.

For `CC(=O)Oc1ccccc1C(=O)O` [ASPIRIN], the AC50 is greater than 30 µM at Thromboxane A2 receptor; greater than 10 µM on D(4) dopamine receptor; greater than 10 µM in test [2]; greater than 30 µM at Androgen receptor; greater than 30 µM in test [3]; greater than 10 µM in test [4].

For the compound `Cn1cnc2c(F)c(Nc3ccc(Br)cc3F)c(C(=O)NOCCO)cc21` [BINIMETINIB], the AC50 on Thromboxane A2 receptor and at Acetylcholinesterase was greater than 30 µM throughout.

As to `C[C@H](CS)C(=O)N1CCC[C@H]1C(=O)O` [CAPTOPRIL], the AC50 at Androgen receptor is greater than 30 µM; in test [4], greater than 10 µM.

As for `O=C(Cc1cccs1)N[C@@H]1C(=O)N2C(C(=O)[O-])=C(C[n+]3ccccc3)CS[C@H]12` [CEPHALORIDINE], in test [1], the AC50 is greater than 30 µM.

Turning to `C[C@H](CCC(=O)O)[C@H]1CC[C@H]2[C@@H]3[C@H](O)C[C@@H]4C[C@H](O)CC[C@]4(C)[C@H]3CC[C@]12C` [CHENODIOL], the AC50 on Acetylcholinesterase is greater than 30 µM.

With `CN(C)CCCC1(c2ccc(F)cc2)OCc2cc(C#N)ccc21` (configuration not stated) [CITALOPRAM], the AC50 on D(4) dopamine receptor was greater than 10 µM; in test [2] it was 0.273 µM; in test [3] it was greater than 30 µM; in test [4], greater than 10 µM.

Consider `C[C@H](Nc1ncnc2[nH]cnc12)c1cc2cccc(Cl)c2c(=O)n1-c1ccccc1` [DUVELISIB], for which the AC50 (in test [1]; at Acetylcholinesterase) was greater than 30 µM throughout.

As to `C[C@]12CCC(=O)C=C1CC[C@H]1[C@@H]3CC[C@](O)(C(=O)CO)[C@@]3(C)C[C@H](O)[C@@]12F` [FLUDROCORTISONE], the results for the AC50 in test [2], in test [3] and in test [4] were greater than 10 µM, greater than 30 µM and greater than 10 µM, respectively.

In the case of `NCC1(CC(=O)O)CCCCC1` [GABAPENTIN], the AC50 was greater than 30 µM on Thromboxane A2 receptor; greater than 10 µM at D(4) dopamine receptor; greater than 10 µM in test [2]; greater than 30 µM in test [3]; greater than 10 µM in test [4]; greater than 30 µM on Acetylcholinesterase.

With `OCCOCCN1CCN(C(c2ccccc2)c2ccc(Cl)cc2)CC1` (configuration not stated) [HYDROXYZINE], the AC50 at D(4) dopamine receptor is 8.54 µM; in test [2], 0.157 µM; in test [3], greater than 30 µM; in test [4], greater than 10 µM.

For the compound `C[C@@H](O)[C@H]1C(=O)N2C(C(=O)O)=C(SCCN=CN)C[C@H]12` [IMIPENEM ANHYDROUS], the AC50 at Thromboxane A2 receptor and at Acetylcholinesterase was greater than 300 µM in each case.

Consider `Nc1nnc(-c2cccc(Cl)c2Cl)c(N)n1` [LAMOTRIGINE], for which the AC50 at D(4) dopamine receptor was greater than 10 µM; in test [2] it was greater than 10 µM; in test [3] it was greater than 30 µM; in test [4], greater than 10 µM.

With `O=C1[C@@H]2[C@H]3CC[C@H](C3)[C@@H]2C(=O)N1C[C@@H]1CCCC[C@H]1CN1CCN(c2nsc3ccccc23)CC1` [LURASIDONE], the values for the AC50 at Thromboxane A2 receptor and on Acetylcholinesterase were greater than 30 µM and 1.3 µM, respectively.

Consider `CCCCCCO[C@@H](C)c1cccc(-c2csc(NC(=O)c3cc(Cl)c(/C=C(\C)C(=O)O)c(Cl)c3)n2)c1OC` [LUSUTROMBOPAG], for which the AC50 in test [1] is greater than 30 µM.

On to `CO[C@@H]1[C@@H](OC(N)=O)[C@@H](O)[C@H](Oc2ccc3c(O)c(NC(=O)c4ccc(O)c(CC=C(C)C)c4)c(=O)oc3c2C)OC1(C)C` [NOVOBIOCIN], for which the AC50 at Thromboxane A2 receptor and at Acetylcholinesterase was greater than 30 µM in each case.

`C#CCN(C)Cc1ccccc1` [PARGYLINE] showed an AC50 in test [1] greater than 30 µM.

In the case of `CC(=O)SCC(Cc1ccccc1)C(=O)NCC(=O)OCc1ccccc1` (configuration not stated) [RACECADOTRIL], the AC50 in test [2] and in test [4] was greater than 10 µM throughout.

`C[C@H](Cn1cnc2c(N)ncnc21)OCP(=O)(O)O` [TENOFOVIR ANHYDROUS] showed an AC50 on Androgen receptor greater than 30 µM.

With `Cc1c(C)c2c(c(C)c1O)CCC(C)(COc1ccc(CC3SC(=O)NC3=O)cc1)O2` (configuration not stated) [TROGLITAZONE], the results for the AC50 (on Androgen receptor; in test [3]) were 3.57 µM and greater than 30 µM, respectively.

Regarding `c1cnc2cc3c(cc2n1)[C@@H]1CNC[C@H]3C1` [VARENICLINE], the AC50 on Thromboxane A2 receptor and at Acetylcholinesterase was greater than 30 µM each time.

As to `Nc1c2c(nc3ccccc13)CCCC2O` (configuration not stated) [VELNACRINE], the AC50 on Thromboxane A2 receptor was greater than 30 µM.

In general, AC50 refers to the concentration at which the activity in the assay is half-maximal. Read a high AC50 as weaker potency.
